Assay results: patent US20150051212A1, “Compositions And Methods For Inhibiting Drusen” (Regenerative Research Foundation, priority 2012, published 2015)

Tests used:
[1] = O'Hare et al. 2005 Cancer Cell; cited from earlier work
[2] = tested on: drusen-associated protein transcripts; experiment: Reduced drusen expression: qPCR of drusen-associated protein transcripts in stressed RPE; format: cell-based, human; settings: FIG. 4
Protocol: RNA is isolated from the RPE cells at the end of the 24 hour rest period, according to the protocol in the Qiagen RNeasy Micro/Mini Kits. Once isolated, the RNA is converted into cDNA using a high-capacity RNA to cDNA conversion kit (Applied Biosystems). The resulting cDNA is then used in a qPCR assay, to quantitate expression of various drusen-associated genes, including genes encoding: αA-crystallin, αB-crystallin, βB1-crystallin, βB2-crystallin, βs-crystallin, αA4-crystallin, APP, APOE, APOJ, BACE-1, PS1, VEGF, VEGF R1, VEGF R2, PEDF, CC9, serum amyloid P, TIMP3, vitronectin, and H2AE. The expression level of one or more housekeeping genes, such as ribosomal S18 and GAPDH, is also quantitated. Forward and reverse PCR primers having the nucleotide sequences shown in Table 2, below, may be used with a SYBR green reporter from Applied Biosystems.

[3] = tested on: RPESC-derived RPE cells; experiment: Restored viability: LDH cytotoxicity assay in stressed RPESC-derived RPE
[4] = tested on: RPESC-derived RPE cells; experiment: Restored resistance: transepithelial resistance of RPESC-derived RPE after oxidative stress; format: cell-based, human; settings: oxidative stress by TBHP; FIG. 3
Excerpt: The ability of a test substance to restore transepithelial resistance may also be determined in the RPE cell-based assay. RPE cells are a tight junctioned epithelia and compromised epithelial integrity is a hallmark of RPE-associated diseases, such as, e.g., dry AMD.
Restored resistance. Healthy RPE form tight functioned epithelia layers with high electrical resistance. Compromising the integrity of these layers decreases the resistance and is indicative of a diseased state, such as dry or other forms of AMD.
Preferably, each well of primary human RPE cells has a resistance greater than 200 Ω·cm^2 before beginning the experiment. Resistance of RPE treated with a test compound is measured again, after oxidative stress, and compared to the resistance in untreated RPE subjected to the same oxidative stress procedure.

**Q.** With `Cc1cn(-c2cc(NC(=O)c3ccc(C)c(Nc4nccc(-c5cccnc5)n4)c3)cc(C(F)(F)F)c2)cn1` [AMN107] as the compound, how does the “potency relative to imatinib mesylate” value [1] read?
**A.** 20 fold

**Q.** Which “effect on TBHP-induced up-regulation of drusen-associated protein transcripts” value [2] does the source give for `COc1cc(Nc2c(C#N)cnc3cc(OCCCN4CCN(C)CC4)c(OC)cc23)c(Cl)cc1Cl` [Bosutinib] here?
**A.** attenuates TBHP-induced up-regulation of drusen-associated protein transcripts

**Q.** With `Cc1ccc(NC(=O)c2ccc(CN3CCN(C)CC3)cc2)cc1Nc1nccc(-c2cccnc2)n1` [Gleevec, 4-[(4-methylpiperazin-1-yl)methyl]-N-(4-methyl-3-{[4-(pyridin-3-yl)pyrimidin-2-yl]amino}phenyl)benzamide] as the compound, how does the “cells viability restored compared to untreated controls” value ([3]; 1 µM) read?
**A.** 100%

**Q.** What about the “cell death in treated cells” value ([3]; 1 μM, 100% cell death in untreated controls) of the same compound?
**A.** 0%

**Q.** And the “effect on TBHP-induced up-regulation of drusen-associated protein transcripts” value [2]?
**A.** attenuates TBHP-induced up-regulation of drusen-associated protein transcripts

**Q.** And the “effect on decrease in transepithelial resistance after oxidative stress” value [4]?
**A.** attenuate the decrease in transepithelial resistance

**Q.** For Ponatinib, which “reduction in cell death compared to the cell lysis control” value ([3]; 500 nM) is on record?
**A.** about 80%

**Q.** What about the effect on cytotoxicity ([3]; 1 μM, FIG. 2) of the same compound?
**A.** no effect on cytotoxicity
